Literature values in PMC2981028 (Cancer research, 2010).

Columns and labels:
insulin receptor (IR) = insulin receptor (IR) (Homo sapiens, UniProt P06213); assay: inhibition of IR phosphorylation in vitro; format: cell-based
[1] = biological target: type 1 insulin-like growth factor receptor (IGF-1R) (Homo sapiens, UniProt P08069); assay: inhibition of IGF-1R phosphorylation in vitro; format: cell-based
type 1 insulin-like growth factor receptor (IGF-1R), sequence (P08069 31-736): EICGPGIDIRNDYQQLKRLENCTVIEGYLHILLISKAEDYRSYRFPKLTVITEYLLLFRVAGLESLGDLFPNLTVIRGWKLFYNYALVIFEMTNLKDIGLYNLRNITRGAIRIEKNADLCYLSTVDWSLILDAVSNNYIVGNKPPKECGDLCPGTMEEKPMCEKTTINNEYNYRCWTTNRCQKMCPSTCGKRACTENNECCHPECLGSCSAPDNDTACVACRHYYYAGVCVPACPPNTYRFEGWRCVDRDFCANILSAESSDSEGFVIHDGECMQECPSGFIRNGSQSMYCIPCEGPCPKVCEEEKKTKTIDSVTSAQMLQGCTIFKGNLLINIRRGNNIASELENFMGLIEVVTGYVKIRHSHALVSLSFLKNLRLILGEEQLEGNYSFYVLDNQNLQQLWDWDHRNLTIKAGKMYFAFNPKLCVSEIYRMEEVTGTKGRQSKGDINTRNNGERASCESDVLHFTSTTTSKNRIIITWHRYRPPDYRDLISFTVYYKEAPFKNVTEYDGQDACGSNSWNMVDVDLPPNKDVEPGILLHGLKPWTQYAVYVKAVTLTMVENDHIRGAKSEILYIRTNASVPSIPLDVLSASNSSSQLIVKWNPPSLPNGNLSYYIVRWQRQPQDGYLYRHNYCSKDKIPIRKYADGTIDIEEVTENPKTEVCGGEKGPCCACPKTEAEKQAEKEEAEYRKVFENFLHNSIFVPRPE
type 1 insulin-like growth factor receptor (IGF-1R), sequence (P08069 741-1367): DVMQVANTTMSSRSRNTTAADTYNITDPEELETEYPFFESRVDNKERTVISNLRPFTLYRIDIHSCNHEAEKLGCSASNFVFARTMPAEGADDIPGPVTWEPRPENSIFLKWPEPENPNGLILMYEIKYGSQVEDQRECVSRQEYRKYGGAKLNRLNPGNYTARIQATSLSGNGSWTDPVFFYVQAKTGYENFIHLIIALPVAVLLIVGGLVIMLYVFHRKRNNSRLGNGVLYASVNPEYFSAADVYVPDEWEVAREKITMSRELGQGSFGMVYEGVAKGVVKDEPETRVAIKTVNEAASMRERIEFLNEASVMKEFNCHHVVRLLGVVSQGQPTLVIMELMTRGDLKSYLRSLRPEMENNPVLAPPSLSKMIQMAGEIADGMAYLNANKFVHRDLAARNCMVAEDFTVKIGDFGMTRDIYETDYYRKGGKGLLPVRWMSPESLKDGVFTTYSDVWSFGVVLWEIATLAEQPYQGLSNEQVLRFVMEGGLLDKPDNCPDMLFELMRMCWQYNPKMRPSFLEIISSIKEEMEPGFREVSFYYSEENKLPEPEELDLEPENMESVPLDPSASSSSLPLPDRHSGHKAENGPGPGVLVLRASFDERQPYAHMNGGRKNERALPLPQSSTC

insulin receptor (IR), sequence (P06213 28-758): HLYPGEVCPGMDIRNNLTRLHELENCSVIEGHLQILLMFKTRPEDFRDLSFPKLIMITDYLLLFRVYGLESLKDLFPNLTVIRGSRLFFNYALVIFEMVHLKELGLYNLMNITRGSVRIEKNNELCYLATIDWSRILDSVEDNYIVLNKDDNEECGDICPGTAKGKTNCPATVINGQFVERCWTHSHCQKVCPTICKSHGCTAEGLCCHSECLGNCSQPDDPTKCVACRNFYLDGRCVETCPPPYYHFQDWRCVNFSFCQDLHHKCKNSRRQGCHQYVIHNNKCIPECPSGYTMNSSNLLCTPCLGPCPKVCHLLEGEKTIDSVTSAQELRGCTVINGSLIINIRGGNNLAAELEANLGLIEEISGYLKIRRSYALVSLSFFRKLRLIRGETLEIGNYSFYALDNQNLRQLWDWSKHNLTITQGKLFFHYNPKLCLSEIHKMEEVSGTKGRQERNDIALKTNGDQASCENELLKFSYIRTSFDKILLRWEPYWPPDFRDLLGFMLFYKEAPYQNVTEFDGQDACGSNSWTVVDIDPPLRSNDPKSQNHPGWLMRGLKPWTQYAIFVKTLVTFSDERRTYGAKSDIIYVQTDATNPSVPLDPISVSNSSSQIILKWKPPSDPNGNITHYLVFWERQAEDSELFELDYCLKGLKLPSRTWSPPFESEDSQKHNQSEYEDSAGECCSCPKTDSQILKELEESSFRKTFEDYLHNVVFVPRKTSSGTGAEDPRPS
insulin receptor (IR), sequence (P06213 763-1382): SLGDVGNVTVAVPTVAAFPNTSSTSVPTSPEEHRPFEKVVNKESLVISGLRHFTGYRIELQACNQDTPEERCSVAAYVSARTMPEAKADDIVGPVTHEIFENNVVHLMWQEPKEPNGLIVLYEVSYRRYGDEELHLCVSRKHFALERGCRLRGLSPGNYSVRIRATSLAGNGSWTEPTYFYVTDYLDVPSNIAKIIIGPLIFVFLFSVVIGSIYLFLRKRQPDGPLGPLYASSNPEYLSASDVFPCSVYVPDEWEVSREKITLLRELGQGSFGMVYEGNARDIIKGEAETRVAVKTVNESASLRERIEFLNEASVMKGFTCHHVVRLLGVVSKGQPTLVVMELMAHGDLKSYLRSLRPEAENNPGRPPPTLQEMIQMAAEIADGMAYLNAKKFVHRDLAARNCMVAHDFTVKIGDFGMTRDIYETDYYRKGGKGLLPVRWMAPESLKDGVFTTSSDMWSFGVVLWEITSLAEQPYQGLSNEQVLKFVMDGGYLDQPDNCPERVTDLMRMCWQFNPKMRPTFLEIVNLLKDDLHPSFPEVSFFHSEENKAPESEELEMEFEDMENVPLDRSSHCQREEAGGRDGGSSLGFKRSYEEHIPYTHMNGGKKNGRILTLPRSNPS

IC50 (insulin receptor (IR)): 19 nM | IC50 [1]: 2.1 nM
SMILES: Cc1cc(Nc2cc(C)[nH]n2)nc(N2CCC[C@H]2c2cc(-c3ccccn3)no2)n1 [AZ12253801]
